According to PMC8371461 (Frontiers in Pharmacology, 2021):

Key:
EGFR(T790M) = target: T1, EGFR(T790M) (Homo sapiens, UniProt P00533, T790M); assay: kinome scan; type: binding; conditions: 10 µM
T1 construct: purchased DiscoverX (KINOMEscan)

TGFBR2 = target: T2, TGFBR2 (Homo sapiens, UniProt P37173); assay: kinome scan; type: binding; conditions: 10 µM
T2 construct: purchased DiscoverX (KINOMEscan)

NDR2 = target: T3, NDR2 (Homo sapiens, UniProt Q9Y2H1); assay: kinome scan; type: binding; conditions: 10 µM
T3 construct: purchased DiscoverX (KINOMEscan)

DLK = target: T4, DLK (Homo sapiens, UniProt Q12852); assay: kinome scan; type: binding; conditions: 10 µM
T4 construct: purchased DiscoverX (KINOMEscan)
T4 sequence (Q12852 whole entry): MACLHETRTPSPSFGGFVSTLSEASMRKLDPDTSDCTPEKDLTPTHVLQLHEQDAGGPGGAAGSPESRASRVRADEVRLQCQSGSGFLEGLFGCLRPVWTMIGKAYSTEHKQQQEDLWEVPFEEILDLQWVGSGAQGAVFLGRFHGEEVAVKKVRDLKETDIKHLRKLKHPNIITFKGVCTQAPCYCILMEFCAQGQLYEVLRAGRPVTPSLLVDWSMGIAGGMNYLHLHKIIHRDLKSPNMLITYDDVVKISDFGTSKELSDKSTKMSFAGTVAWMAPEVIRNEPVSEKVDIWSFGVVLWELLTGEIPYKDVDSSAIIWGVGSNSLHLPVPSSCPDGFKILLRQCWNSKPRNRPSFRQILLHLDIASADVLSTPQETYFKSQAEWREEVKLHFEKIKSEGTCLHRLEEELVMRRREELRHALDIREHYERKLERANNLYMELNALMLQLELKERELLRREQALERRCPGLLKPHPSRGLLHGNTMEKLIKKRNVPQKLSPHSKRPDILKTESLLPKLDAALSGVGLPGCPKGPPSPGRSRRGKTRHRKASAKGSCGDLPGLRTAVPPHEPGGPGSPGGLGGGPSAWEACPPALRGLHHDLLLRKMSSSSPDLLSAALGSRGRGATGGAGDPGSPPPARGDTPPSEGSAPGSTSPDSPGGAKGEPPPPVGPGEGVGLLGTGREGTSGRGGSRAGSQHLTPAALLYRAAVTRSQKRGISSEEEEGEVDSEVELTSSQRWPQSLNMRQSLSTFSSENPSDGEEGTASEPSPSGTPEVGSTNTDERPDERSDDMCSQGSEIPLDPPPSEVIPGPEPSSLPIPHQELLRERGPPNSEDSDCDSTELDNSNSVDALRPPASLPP

KIT(D816H) = target: T5, KIT(D816H) (Homo sapiens, UniProt P10721, D816H); assay: kinome scan; type: binding; conditions: 10 µM
T5 construct: purchased DiscoverX (KINOMEscan)
T5 sequence (P10721 26-976 D816H): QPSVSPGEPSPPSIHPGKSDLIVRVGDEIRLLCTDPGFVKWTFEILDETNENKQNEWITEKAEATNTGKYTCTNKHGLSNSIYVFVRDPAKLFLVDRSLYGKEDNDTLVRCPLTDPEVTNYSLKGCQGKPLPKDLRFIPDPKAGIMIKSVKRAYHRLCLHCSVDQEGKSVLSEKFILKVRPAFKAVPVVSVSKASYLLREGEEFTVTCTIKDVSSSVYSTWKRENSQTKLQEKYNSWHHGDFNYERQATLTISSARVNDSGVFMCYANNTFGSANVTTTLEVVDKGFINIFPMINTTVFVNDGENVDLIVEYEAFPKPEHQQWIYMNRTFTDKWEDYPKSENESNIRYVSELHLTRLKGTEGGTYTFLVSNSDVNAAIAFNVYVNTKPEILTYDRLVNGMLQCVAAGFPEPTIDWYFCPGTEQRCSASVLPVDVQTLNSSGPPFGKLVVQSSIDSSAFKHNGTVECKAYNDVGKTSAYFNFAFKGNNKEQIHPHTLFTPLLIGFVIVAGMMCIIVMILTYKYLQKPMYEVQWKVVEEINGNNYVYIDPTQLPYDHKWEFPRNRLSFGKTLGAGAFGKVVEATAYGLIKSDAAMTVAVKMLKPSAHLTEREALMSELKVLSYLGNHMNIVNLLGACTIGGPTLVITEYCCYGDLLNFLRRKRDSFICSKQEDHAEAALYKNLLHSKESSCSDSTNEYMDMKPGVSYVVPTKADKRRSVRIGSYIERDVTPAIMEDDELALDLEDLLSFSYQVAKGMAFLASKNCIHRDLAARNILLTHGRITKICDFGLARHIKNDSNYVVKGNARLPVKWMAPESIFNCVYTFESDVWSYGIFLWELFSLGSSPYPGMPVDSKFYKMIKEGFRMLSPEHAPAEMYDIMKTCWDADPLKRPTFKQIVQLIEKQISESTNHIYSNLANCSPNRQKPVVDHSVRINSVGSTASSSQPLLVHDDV

FGFR1 = target: T6, FGFR1 (Homo sapiens, UniProt P11362); assay: kinome scan; type: binding; conditions: 10 µM
T6 construct: purchased DiscoverX (KINOMEscan)

GSK3A = target: T7, GSK3A (Homo sapiens, UniProt P49840); assay: kinome scan; type: binding; conditions: 10 µM
T7 construct: purchased DiscoverX (KINOMEscan)

MET = target: T8, MET (Homo sapiens, UniProt P08581); assay: kinome scan; type: binding; conditions: 10 µM
T8 construct: purchased DiscoverX (KINOMEscan)

MAPKAPK5 = target: T9, MAPKAPK5 (Homo sapiens, UniProt Q8IW41); assay: kinome scan; type: binding; conditions: 10 µM
T9 construct: purchased DiscoverX (KINOMEscan)

[1] = target: T10, ABL1(T315I)-nonphosphorylated (Homo sapiens, UniProt P00519, T315I); assay: kinome scan; type: binding; conditions: 10 µM
T10 construct: purchased DiscoverX (KINOMEscan)

EPHB2 = target: T11, EPHB2 (Homo sapiens, UniProt P29323); assay: kinome scan; type: binding; conditions: 10 µM
T11 construct: purchased DiscoverX (KINOMEscan)

ERK2 = target: T12, ERK2 (Homo sapiens, UniProt P28482); assay: kinome scan; type: binding; conditions: 10 µM
T12 construct: purchased DiscoverX (KINOMEscan)
T12 sequence (P28482 whole entry): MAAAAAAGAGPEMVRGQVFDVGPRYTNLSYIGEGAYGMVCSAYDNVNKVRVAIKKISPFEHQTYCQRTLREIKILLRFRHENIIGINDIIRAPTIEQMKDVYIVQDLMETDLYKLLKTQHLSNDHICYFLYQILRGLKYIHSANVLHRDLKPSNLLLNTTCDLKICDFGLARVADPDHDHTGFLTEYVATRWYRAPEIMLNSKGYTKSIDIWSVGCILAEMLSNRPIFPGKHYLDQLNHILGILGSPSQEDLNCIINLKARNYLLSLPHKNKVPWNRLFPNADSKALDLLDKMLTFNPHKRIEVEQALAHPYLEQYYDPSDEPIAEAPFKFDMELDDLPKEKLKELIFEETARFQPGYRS

PRKG2 = target: T13, PRKG2 (Homo sapiens, UniProt Q13237); assay: kinome scan; type: binding; conditions: 10 µM
T13 construct: purchased DiscoverX (KINOMEscan)

CSNK2A2 = target: T14, CSNK2A2 (Homo sapiens, UniProt P19784); assay: kinome scan; type: binding; conditions: 10 µM
T14 construct: purchased DiscoverX (KINOMEscan)

PFCDPK1(P.falciparum) = target: T15, PFCDPK1(P.falciparum) (Plasmodium falciparum, UniProt P62344); assay: kinome scan; type: binding; conditions: 10 µM
T15 construct: purchased DiscoverX (KINOMEscan)
Description: (§1) The kinome scan analysis was performed using the DiscoverX platform (www.discoverx.com). Briefly, T7 kinase-tagged phage strains are grown in parallel in 24-well or 96-well blocks in a BL21-derived E. coli host for 90 min until lysis. Lysates are centrifuged at 6,000 x g and filtered with a 0.2 µm filter to remove cell debris. Streptavidin-coated magnetic beads are treated with biotinylated kinase ligands for 30 min at room temperature to generate the affinity resin. Bound beads are blocked with excess biotin and washed with blocking buffer (SeaBlock (Pierce), 1% BSA, 0.05% Tween 20, and 1 mM DTT) to remove unbound ligand and reduce nonspecific phage binding. […] The final concentration of test compound is 10 µM. Assay plates are incubated at room temperature with shaking for 1 h. Affinity beads are treated four times with washing buffer (1X PBS, 0.05% Tween 20, and 1 mM DTT) to remove unbound phage. […] Q RT PCR is used to measure the amount of phage in each eluate (which is proportional to the amount of kinase bound). Data is presented as the percentage of kinase bound by 10 µM of the ligand compared to the DMSO only as a control.
(§2) Hits are identified by an ultra-sensitive quantitative PCR detecting the specific DNA tag linked to each kinase (Supplementary Figure S2). The drug is used at a concentration of 10 µM and results are expressed as the percentage of signal (kinase PCR detection) with respect to DMSO control conditions. Thirteen hits were identified, with a signal reduction ranging from 0 to 27% (Table 3). Full raw data are presented in Supplementary Table S4. Interactions between 0 and 20% of reduction were considered to be the most significant ones. […] A sub-micromolar affinity (Kd<1 µM) was only seen with two PIKs (PIP4K2C, PI4KB) and GAK (Table 4). Inhibitions curves from these compounds are shown in Supplementary Figure S3.

CDC2L5 = target: T16, CDC2L5 (Homo sapiens, UniProt Q14004); assay: kinome scan; type: binding; conditions: 10 µM
T16 construct: purchased DiscoverX (KINOMEscan)
Description: as §1, §2

PFPK5(P.falciparum) = target: T17, PFPK5(P.falciparum) (Plasmodium falciparum, UniProt P61075); assay: kinome scan; type: binding; conditions: 10 µM
T17 construct: purchased DiscoverX (KINOMEscan)
Description: as §1, §2

PRP4 = target: T18, PRP4 (Homo sapiens, UniProt Q13523); assay: kinome scan; type: binding; conditions: 10 µM
T18 construct: purchased DiscoverX (KINOMEscan)
Description: as §1, §2

[2] = target: T19, TYK2(JH2domain-pseudokinase) (Homo sapiens, UniProt P29597); assay: kinome scan; type: binding
T19 construct: TYK2(JH2domain-pseudokinase); purchased DiscoverX (KINOMEscan)
T19 sequence (P29597 556-888 limits assumed): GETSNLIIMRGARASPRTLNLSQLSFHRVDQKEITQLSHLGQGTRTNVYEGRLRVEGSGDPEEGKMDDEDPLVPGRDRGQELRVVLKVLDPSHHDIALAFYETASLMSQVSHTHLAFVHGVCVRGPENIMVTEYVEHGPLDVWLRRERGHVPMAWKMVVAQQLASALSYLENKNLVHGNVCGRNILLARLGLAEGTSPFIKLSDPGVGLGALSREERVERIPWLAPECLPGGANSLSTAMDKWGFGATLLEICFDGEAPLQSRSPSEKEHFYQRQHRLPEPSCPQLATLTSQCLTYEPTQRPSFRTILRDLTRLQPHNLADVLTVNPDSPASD

ROCK2 = target: T20, ROCK2 (Homo sapiens, UniProt O75116); assay: kinome scan; type: binding; conditions: 10 µM
T20 construct: purchased DiscoverX (KINOMEscan)
T20 sequence (O75116 whole entry): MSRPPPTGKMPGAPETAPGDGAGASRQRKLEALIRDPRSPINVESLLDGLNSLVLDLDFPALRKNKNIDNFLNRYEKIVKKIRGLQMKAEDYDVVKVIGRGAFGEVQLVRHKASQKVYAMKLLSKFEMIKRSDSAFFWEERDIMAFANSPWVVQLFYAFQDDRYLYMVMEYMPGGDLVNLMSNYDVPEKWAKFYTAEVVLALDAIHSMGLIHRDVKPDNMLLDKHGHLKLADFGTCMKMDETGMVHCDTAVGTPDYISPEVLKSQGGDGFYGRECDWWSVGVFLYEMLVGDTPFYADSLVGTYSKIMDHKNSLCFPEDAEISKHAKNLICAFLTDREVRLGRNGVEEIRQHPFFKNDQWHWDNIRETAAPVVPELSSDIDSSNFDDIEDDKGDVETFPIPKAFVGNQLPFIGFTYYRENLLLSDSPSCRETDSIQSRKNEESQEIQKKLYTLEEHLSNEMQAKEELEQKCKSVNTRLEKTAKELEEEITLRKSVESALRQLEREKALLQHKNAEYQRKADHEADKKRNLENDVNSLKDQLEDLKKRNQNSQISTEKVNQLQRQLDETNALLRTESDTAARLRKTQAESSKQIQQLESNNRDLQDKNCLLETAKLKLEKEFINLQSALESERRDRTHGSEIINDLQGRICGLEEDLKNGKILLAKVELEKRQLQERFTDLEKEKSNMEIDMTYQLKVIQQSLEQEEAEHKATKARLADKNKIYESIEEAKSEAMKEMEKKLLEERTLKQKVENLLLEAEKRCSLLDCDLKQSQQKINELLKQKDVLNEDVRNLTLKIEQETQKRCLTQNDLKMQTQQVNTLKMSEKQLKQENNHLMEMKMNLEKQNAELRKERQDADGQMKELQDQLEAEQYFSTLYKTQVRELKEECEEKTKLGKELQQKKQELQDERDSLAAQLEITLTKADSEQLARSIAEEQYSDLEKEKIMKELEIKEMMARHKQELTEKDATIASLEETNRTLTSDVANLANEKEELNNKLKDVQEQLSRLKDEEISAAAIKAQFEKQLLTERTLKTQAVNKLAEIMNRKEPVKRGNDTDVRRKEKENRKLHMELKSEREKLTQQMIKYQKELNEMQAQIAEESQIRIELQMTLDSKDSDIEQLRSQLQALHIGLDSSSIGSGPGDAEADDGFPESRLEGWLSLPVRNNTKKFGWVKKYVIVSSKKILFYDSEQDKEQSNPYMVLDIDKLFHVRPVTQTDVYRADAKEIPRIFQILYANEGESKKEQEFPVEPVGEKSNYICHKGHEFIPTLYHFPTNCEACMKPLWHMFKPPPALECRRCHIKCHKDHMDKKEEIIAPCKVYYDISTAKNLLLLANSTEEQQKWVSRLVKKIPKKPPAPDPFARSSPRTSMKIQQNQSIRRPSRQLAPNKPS

BRAF = target: T21, BRAF (Homo sapiens, UniProt P15056); assay: kinome scan; type: binding; conditions: 10 µM
T21 construct: purchased DiscoverX (KINOMEscan)

DAPK1 = target: T22, DAPK1 (Homo sapiens, UniProt P53355); assay: kinome scan; type: binding; conditions: 10 µM
T22 construct: purchased DiscoverX (KINOMEscan)

HCK = target: T23, HCK (Homo sapiens, UniProt P08631); assay: kinome scan; type: binding; conditions: 10 µM
T23 construct: purchased DiscoverX (KINOMEscan)

LRRK2(G2019S) = target: T24, LRRK2(G2019S) (Homo sapiens, UniProt Q5S007, G2019S); assay: kinome scan; type: binding; conditions: 10 µM
T24 construct: purchased DiscoverX (KINOMEscan)

ICK = target: T25, ICK (Homo sapiens, UniProt Q9UPZ9); assay: kinome scan; type: binding; conditions: 10 µM
T25 construct: purchased DiscoverX (KINOMEscan)

IRAK3 = target: T26, IRAK3 (Homo sapiens, UniProt Q9Y616); assay: kinome scan; type: binding; conditions: 10 µM
T26 construct: purchased DiscoverX (KINOMEscan)

ERK = ERK phosphorylation by Western blotting; type: cell-based, mouse; conditions: PSC, data not shown
Description: It is noteworthy that, in parallel, a regulation of the ERK pathway was not confirmed at the protein level, assessed by the study of ERK phosphorylation by Western blotting (data not shown). The effects of the drug on proliferation or differentiation was next investigated in quantitative assays. The rate of cell proliferation of the PSC, assessed during five days by quantification of intracellular ATP, was not affected by the drug (Figure 2A). The CGR8 PSC line was stably transduced with a dual promoter/reporter gene construct containing a ubiquitous promoter (EF1αS) controlling the expression of Renilla Luciferase (RLuc) and also an early neural-specific promoter (Tα1), controlling the expression of Firefly Luciferase (FLuc). Then, neural differentiation was quantified by the normalized ratio between FLuc and RLuc ([Suter et al., 2009]). […] After 72 h, the cells were lysed for RLuc and FLuc luminescence measurement in the presence of their substrates, each signal being normalized with the signal obtained with the vehicle alone (DMSO).

T1 sequence (P00533 25-1210 T790M): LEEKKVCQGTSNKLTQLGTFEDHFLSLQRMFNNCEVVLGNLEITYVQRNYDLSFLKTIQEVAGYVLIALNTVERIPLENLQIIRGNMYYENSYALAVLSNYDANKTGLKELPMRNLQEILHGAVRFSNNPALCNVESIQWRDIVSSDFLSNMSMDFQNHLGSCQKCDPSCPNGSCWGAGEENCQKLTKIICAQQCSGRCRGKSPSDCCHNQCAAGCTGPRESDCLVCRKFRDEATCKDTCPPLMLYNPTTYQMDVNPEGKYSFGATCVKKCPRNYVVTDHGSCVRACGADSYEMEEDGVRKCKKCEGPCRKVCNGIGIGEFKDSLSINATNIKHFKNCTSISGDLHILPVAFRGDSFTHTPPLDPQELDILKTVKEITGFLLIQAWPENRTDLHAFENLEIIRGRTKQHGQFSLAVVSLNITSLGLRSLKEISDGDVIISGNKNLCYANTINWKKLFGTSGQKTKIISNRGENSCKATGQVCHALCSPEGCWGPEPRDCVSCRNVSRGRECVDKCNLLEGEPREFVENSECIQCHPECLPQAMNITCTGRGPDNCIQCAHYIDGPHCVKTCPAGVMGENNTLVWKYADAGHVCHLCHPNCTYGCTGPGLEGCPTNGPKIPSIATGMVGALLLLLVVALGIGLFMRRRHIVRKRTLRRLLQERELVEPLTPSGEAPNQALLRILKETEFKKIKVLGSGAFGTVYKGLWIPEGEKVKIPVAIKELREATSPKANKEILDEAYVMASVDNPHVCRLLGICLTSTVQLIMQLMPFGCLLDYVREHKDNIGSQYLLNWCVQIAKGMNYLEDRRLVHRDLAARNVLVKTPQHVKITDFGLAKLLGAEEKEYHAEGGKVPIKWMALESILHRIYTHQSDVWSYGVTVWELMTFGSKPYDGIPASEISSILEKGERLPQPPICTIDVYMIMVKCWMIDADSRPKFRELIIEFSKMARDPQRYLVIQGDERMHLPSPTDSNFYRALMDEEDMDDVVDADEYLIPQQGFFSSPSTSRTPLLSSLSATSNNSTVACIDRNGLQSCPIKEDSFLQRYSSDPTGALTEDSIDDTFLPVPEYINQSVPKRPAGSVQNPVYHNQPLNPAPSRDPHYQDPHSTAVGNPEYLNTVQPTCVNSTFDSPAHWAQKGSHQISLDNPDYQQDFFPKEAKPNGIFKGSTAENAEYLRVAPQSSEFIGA

Nc1ccc(N=Nc2ccccc2)c(N)n1 [phenazopyridine, 2,6-diamino-3-(phenylazo)pyridine]
kinase inhibition (EGFR(T790M)): 100
kinase inhibition (TGFBR2): 66
kinase inhibition (NDR2): 100
kinase inhibition (DLK): 73
kinase inhibition (KIT(D816H)): 85
kinase inhibition (FGFR1): 100
kinase inhibition (GSK3A): 100
kinase inhibition (MET): 100
kinase inhibition (MAPKAPK5): 100
kinase inhibition [1]: 100
kinase inhibition (EPHB2): 70
kinase inhibition (ERK2): 92
kinase inhibition (PRKG2): 81
kinase inhibition (CSNK2A2): 63
kinase inhibition (PFCDPK1(P.falciparum)): 100
kinase inhibition (CDC2L5): 100
kinase inhibition (PFPK5(P.falciparum)): 89
kinase bound, % of DMSO control (PRP4): 100
remaining binding (% of control) ([2]; TYK2(JH2domain-pseudokinase), 10 µM): 16
remaining binding at 10 µM ([2]; TYK2 as printed (Table S4: JH2domain-pseudokinase), read-out: % Of control): 16%
kinase inhibition (ROCK2): 89
kinase inhibition (BRAF): 96
kinase inhibition (DAPK1): 86
kinase inhibition (HCK): 100
kinase inhibition (LRRK2(G2019S)): 91
kinase inhibition (ICK): 90
kinase inhibition (IRAK3): 71
regulation of the ERK pathway (ERK phosphorylation) (ERK): not confirmed
